Tested on: Neonatal Yorkshire/Landrace cross bred piglets
Assay: Intestinal histomorphology: villus height and crypt depth
Format: in vivo, pig
Design: key to Villus (total) / Crypt (total): + denotes a positive effect (compared to standard PN); ++ a very positive effect; − denotes no difference
Description: Neonatal Yorkshire/Landrace cross bred piglets (n=72; six at a time from the same litter, repeating 12 times) were obtained from Oak Hill Genetics (Ewing, Ill.) after 48-hour sow reared for colostrum consumption and iron supplementation.
Formalin-fixed intestinal samples were embedded in paraffin, sliced to approximately 5-μm thickness with a microtome and stained with hematoxylin and eosin (FIG. 6). Villus height, midvillus width, and crypt depth were measured by using a Nikon Optiphot-2 microscope (Nikon, Melville, N.Y.) and ImagePro Express software (Version 4.5; Media Cybernetics, Inc, Silver Spring, Md.) in 8 to 10 well-oriented villi and crypts. Villus surface area (villus height×midvillus width) was also calculated. In addition, intestinal segment circumference was measured to estimate intestinal surface area. The results are provided in FIGS. 7 through 12 (see there for details). […] The Table summarizes the average difference (in % of each Intervention Group (A, B, C, D) versus the PN Group) of the villus height and the crypt depth in the different sections of the gut, i.e. duodenum, jejunum, ileum and colon. The Intervention Groups show an improved villus height compared to the s-PN Group.

[1] = 10 mmol/L TPN (Groups A, C, D), sum over sections
[2] = 10 mmol/L in PN, all sections, compared to standard PN

Compound: CCCCCCCCCCCCCCCC(=O)OCC(COC(=O)CCC)OC(=O)CCCCCCCCCCCCCCC (centres unmarked) [1,2-Dipalmitoyl 3-butyryl glycerol]
- average duodenal crypt length (crypt depth, FIG. 8) (10 mmol/L TPN): gave the best results
- average duodenal villous length (FIG. 7) (10 mmol/L TPN): increased villous length compared to the other study groups
- average ileal crypt depth (FIG. 11) (10 mmol/L TPN): significant difference
- average jejunal crypt depth (FIG. 10) (10 mmol/L TPN): lower
- average jejunal villous length (FIG. 9) (10 mmol/L TPN): relatively good results
- % Δ from PN, Colon C (crypt depth) (10 mmol/L TPN (Groups A, C, D)): +12%
- % Δ from PN, Duodenum C (crypt depth) (10 mmol/L TPN (Groups A, C, D)): +19%
- % Δ from PN, Duodenum V (villus height) (10 mmol/L TPN (Groups A, C, D)): +31%
- % Δ from PN, Ileum C (crypt depth) (10 mmol/L TPN (Groups A, C, D)): +15%
- % Δ from PN, Ileum V (villus height) (10 mmol/L TPN (Groups A, C, D)): +24%
- % Δ from PN, Jejunum C (crypt depth) (10 mmol/L TPN (Groups A, C, D)): +2%
- % Δ from PN, Jejunum V (villus height) (10 mmol/L TPN (Groups A, C, D)): +5%
- % Δ from PN, Total Total (crypt + villus) (10 mmol/L TPN (Groups A, C, D)): +110%
- % Δ from PN, Total C (crypt depth) [1]: +50%
- % Δ from PN, Total V (villus height) [1]: +60%
- Crypt (total) [2]: +
- Villus (total) [2]: +

Reference: patent publication US20220160669A1, “PARENTERAL NUTRITION FORMULATION” (BAXTER INTERNATIONAL INC., priority 2020, published 2022)
